Common to all, as to type: biochemical
The target in one test is T1, PI3K alfa (Homo sapiens, UniProt P42336).
T1 construct: for the p110-a subunit (with a deletion of the first 20 amino acids); His tag (C); made in house; host or cells: baculovirus; Tn5 (Trichoplusia ni) or TiniPro insect cells
Put plainly: PI3 kinase assay (Kinase-Glo luminescence), PI3K alfa. On the procedure:
(§1) In a more preferred assay, the kinase reaction is performed in a final volume of 10 μL per well of a low volume non binding CORNING, 384 well black plate (Cat. No. #3676). The final concentrations of ATP and phosphatidyl inositol (PI) in the assay are 1 μM and 10 μg/mL respectively. The reaction is started by the addition of ATP.
(§2) The components of the assay are added per well as follows:
(§3) 50 nL test compounds in 90% DMSO per well, in columns 1-20, 8 concentrations (1/3 and 1/3.33 serial dilution step) in single. • Low control: 50 nL of 90% DMSO in half the wells of columns 23-24 (0.45% in final). • High control: 50 nL of reference compound (e.g. compound of Example 7 in WO 2006/122806, incorporated by reference hereinin that regard) in the other half of columns 23-24 (2.5 μM in final). • Standard: 50 nL of reference compound as just mentioned diluted as the test compounds in columns 21-22 • 20 mL ‘buffer’ are prepared per assay: • 200 μL of 1M TRIS HCl pH7.5 (10 mM in final) • 60 μL of 1M MgCl2 (3 mM in final) • 500 μL of 2M NaCl (50 mM in final) • 100 μL of 10% CHAPS (0.05% in final) • 200 μL of 100 mM DTT (1 mM in final) • 18.94 mL of nanopure water • 10 mL ‘PI’ are prepared per assay: • 200 μL of 1 mg/ml L-alpha-Phosphatidylinositol (Liver Bovine, Avanti Polar Lipids Cat. No. 840042C MW=909.12) prepared in 3% OctylGlucoside (10 μg/ml in final) • 9.8 mL of ‘buffer’ • 10 mL ‘ATP’ are prepared per assay: • 6.7 μL of 3 mM stock of ATP giving a final concentration of 1 μM per well • 10 mL of ‘buffer’ • 2.5 mL of each PI3K construct are prepared per assay in ‘PI’ with the following final concentration : • 10 nM PI3K alfa B-1075 • 25 nM beta BV-949 • 10 nM delta BV-1060 • 150 nM gamma BV-950 • 5 μL of ‘PI/PI3K’ are added per well. • 5 μl ‘ATP’ are added per well to start the reaction. • The plates are then incubated at room temperature for 60 minutes (alfa, beta, delta) or 120 minutes (gamma). • The reaction is terminated by the addition of 10 μL Kinase-Glo (Promega Cat. No. #6714). • The assay plates are read after 10 minutes in Synergy 2 reader (BioTek, Vermont USA) with an integration time of 100 milliseconds and sensitivity set to 191. • Output : The High control is around 60'000 counts and the Low control is 30'000 or lower • This luminescence assay gives a useful Z′ ratio between 0.4 and 0.7
(§4) […] is determined by a four parameter curve fitting routine that comes aloneg with “excel fit”. A 4 Parameter logistic equation is used to calculate IC50 values (IDBS XLfit) of the percentage inhibition of each compound at 8 concentrations (usually 10, 3.0, 1.0, 0.3, 0.1, 0.030, 0.010 and […]). Alternatively, IC50 values are calculated using idbsXLfit model 204, which is a 4 parameter logistic model.
(§5) Testing with the following kinases in the test system mentioned above, with the kinases given in the following tables, the following IC 50 data can be obtained: […]

The target in a further test is T2, PI3K beta (Homo sapiens, UniProt P42338).
T2 construct: for the full-length p110-b subunit are generated and fused by overlapping PCR; His tag (C); made in house; host or cells: baculovirus; Tn5 (Trichoplusia ni) or TiniPro insect cells
T2 sequence (P42338 with tags, fused parts or gaps limits assumed): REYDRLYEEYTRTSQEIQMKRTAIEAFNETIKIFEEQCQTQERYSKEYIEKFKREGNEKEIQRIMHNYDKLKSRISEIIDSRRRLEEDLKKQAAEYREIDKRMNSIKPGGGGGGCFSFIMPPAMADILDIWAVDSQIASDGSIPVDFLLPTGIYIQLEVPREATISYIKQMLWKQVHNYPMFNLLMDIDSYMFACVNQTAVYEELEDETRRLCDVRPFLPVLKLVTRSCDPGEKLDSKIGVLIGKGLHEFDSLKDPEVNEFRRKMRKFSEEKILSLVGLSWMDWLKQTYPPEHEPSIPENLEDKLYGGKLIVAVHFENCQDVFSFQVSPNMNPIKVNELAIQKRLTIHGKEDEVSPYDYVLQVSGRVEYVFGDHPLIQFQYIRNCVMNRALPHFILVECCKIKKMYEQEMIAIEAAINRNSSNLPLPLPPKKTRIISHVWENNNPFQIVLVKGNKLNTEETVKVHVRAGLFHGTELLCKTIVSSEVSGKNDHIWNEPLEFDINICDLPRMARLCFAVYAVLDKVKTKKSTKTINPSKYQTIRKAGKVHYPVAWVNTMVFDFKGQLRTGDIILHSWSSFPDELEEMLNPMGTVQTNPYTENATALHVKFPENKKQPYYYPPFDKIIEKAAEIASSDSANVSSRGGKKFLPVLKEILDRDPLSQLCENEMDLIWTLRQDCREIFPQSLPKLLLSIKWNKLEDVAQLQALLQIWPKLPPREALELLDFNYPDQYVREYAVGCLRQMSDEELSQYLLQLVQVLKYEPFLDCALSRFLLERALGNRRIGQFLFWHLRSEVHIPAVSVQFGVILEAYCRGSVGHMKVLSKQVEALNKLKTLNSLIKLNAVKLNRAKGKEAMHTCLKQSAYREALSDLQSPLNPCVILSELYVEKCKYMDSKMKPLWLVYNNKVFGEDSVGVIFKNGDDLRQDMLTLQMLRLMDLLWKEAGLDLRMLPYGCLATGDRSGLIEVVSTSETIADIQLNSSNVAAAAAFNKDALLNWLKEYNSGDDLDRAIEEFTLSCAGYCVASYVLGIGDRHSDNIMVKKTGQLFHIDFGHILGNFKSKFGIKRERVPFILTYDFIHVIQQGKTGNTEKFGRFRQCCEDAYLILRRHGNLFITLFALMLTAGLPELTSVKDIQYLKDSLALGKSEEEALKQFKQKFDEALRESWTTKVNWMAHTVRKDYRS
Put plainly: PI3 kinase assay (Kinase-Glo luminescence), PI3K beta. The conditions noted are these: Enzymatic Data; read-out: PI3K beta IC50 [umol]. On the procedure:
as §1, §2, §3, §4, §5

The target in another test is T3, PI3K delta (Homo sapiens, UniProt O00329).
T3 construct: for the full-length p110-d subunit are generated and fused by overlapping PCR; His tag (C); made in house; host or cells: baculovirus; Tn5 (Trichoplusia ni) or TiniPro insect cells
T3 sequence (O00329 with tags, fused parts or gaps limits assumed): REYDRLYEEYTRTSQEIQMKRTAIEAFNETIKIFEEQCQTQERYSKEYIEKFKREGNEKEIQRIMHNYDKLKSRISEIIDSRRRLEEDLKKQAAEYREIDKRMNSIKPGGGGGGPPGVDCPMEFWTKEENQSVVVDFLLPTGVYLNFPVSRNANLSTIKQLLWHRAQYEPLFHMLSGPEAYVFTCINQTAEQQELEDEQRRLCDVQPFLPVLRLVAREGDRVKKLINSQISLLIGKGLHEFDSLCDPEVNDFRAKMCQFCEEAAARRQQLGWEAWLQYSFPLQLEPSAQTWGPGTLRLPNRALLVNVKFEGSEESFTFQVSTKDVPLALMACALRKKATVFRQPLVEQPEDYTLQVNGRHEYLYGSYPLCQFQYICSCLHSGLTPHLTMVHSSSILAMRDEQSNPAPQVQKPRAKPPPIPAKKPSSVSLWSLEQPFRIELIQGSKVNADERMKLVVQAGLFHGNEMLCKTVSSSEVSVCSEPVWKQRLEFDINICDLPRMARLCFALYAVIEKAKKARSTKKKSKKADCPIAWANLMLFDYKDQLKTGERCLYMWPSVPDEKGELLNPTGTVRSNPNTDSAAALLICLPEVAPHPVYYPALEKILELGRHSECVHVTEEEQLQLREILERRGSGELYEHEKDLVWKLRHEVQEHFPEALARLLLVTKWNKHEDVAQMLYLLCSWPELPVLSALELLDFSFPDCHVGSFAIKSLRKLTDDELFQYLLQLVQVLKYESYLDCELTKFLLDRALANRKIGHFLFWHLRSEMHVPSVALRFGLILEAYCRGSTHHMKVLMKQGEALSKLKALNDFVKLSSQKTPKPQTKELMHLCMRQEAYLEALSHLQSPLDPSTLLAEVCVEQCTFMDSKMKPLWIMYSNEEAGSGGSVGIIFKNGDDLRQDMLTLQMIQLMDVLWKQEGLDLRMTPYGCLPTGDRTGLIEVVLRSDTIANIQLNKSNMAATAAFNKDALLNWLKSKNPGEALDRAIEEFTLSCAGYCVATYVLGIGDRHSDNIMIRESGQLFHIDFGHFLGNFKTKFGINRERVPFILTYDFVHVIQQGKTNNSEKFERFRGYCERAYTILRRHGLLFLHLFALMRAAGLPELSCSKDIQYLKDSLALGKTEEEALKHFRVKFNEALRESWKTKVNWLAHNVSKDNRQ
Put plainly: PI3 kinase assay (Kinase-Glo luminescence), PI3K delta. The conditions noted are these: Enzymatic Data; read-out: PI3K delta IC50 [umol]. The protocol:
as §1, §2, §3, §4, §5

The target in the next test is T4, PI3K gamma (Homo sapiens, UniProt P48736).
T4 construct: PI3Kγ BV-950 p110g(D144aa)-C-Term His Tag; His tag (C); made in house; host or cells: construct from the Roger Williams lab (MRC LMB) in pVL1393; baculovirus; Tn5 (Trichoplusia ni) or TiniPro insect cells
T4 sequence (P48736 144-1102 limits assumed): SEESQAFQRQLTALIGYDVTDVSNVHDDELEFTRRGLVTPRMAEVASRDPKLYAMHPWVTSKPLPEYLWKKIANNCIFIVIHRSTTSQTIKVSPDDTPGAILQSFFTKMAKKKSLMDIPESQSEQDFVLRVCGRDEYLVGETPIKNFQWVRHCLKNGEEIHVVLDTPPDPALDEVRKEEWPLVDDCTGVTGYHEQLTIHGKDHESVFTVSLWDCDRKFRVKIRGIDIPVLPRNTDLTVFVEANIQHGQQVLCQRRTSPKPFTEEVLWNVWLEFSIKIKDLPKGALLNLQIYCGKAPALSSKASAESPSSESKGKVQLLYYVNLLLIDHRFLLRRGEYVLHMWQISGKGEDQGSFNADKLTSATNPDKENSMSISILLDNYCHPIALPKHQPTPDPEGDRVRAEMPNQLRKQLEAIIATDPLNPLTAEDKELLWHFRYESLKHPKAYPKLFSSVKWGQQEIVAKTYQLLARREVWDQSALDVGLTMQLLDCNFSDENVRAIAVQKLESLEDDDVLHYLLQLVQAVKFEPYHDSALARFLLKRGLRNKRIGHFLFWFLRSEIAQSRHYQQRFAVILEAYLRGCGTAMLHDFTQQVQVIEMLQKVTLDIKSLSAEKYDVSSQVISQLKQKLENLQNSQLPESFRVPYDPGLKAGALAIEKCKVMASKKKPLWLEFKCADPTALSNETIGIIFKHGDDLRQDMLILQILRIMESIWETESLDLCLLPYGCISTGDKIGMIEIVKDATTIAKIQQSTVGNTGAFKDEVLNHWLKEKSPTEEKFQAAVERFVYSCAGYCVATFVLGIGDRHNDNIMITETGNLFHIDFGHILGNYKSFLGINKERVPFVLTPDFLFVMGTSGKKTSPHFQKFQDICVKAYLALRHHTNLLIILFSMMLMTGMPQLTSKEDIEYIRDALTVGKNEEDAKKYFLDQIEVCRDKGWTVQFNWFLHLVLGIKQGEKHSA
As to the kind of experiment: PI3 kinase assay (Kinase-Glo luminescence), PI3K gamma. Particulars: Enzymatic Data; read-out: PI3K gamma IC50 [umol]. On the procedure: as §1, §2, §4

Where [1] appears, read: Enzymatic Data, read-out: PI3K alfa IC50 [umol].

Like-named read-outs stand apart in the source and are kept apart here.

T1 sequence (P42336 with tags, fused parts or gaps limits assumed): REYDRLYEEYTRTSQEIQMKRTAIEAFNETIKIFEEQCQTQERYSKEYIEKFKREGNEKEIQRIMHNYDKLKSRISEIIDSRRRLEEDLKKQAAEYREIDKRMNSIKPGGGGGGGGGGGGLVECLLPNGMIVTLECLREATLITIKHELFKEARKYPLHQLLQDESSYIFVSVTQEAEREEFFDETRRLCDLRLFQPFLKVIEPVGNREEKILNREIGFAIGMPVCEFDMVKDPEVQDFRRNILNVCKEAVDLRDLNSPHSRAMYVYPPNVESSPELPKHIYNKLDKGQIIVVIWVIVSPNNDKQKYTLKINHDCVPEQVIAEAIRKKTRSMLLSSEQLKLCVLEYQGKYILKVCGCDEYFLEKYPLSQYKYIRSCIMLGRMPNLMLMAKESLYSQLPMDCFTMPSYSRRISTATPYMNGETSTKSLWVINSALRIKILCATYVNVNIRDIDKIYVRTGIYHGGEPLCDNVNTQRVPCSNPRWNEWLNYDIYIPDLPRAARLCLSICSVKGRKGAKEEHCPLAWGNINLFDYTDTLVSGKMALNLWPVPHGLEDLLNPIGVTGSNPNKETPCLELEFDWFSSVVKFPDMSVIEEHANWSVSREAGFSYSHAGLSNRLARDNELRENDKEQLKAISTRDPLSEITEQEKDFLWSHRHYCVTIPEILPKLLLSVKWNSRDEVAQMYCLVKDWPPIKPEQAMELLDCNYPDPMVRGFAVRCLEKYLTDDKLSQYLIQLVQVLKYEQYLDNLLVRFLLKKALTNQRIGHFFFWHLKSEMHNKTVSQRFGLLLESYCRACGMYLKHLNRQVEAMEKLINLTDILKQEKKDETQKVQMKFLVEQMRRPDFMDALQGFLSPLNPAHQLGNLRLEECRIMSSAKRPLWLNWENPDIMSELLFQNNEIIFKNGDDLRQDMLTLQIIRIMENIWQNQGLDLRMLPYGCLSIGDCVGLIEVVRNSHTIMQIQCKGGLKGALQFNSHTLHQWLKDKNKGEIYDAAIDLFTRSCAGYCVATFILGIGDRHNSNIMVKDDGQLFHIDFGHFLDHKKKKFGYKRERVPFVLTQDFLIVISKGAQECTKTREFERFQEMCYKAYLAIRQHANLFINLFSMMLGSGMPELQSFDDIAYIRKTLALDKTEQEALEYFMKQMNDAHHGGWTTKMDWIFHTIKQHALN

Regarding `COc1ccc(-c2ccc3ncc(-c4ccc(OC)c(OC)c4)n3n2)cc1OC` [Example 1, 3,6-Bis-(3,4-dimethoxy-phenyl)-imidazo[1,2-b]pyridazine], on PI3K alfa (read-out: IC50 (μm) PI3K-alfa), the IC50 was 3 nM.

Take `COc1ccc(-c2ccc3ncc(-c4ccc(S(C)(=O)=O)cc4)n3n2)cc1OC` [Example 5, 6-(3,4-Dimethoxy-phenyl)-3-(4-methanesulfonyl-phenyl)-imidazo[1,2-b]pyridazine]: the IC50 on PI3K alfa (read-out: IC50 (μm) PI3K-alfa) is 1.64 nM.

In the case of `Nc1ncc(-c2ccc3ncc(-c4cnc(N)c(C(F)(F)F)c4)n3n2)cc1C(F)(F)F` [Example 6], the IC50 on PI3K alfa (read-out: IC50 (μm) PI3K-alfa) came to 3 nM.

`NC(=O)c1ccc(-c2ccc3ncc(-c4ccc(C(N)=O)cc4)n3n2)cc1` [Example 7, 4-[3-(4-Carbamoylphenyl)-imidazo[1,2-b]pyridazin-6-yl]-benzamide]: the IC50 on PI3K alfa (read-out: IC50 (μm) PI3K-alfa) amounted to 14 nM.

Consider `CCOC(=O)c1cc(-c2ccc3ncc(-c4ccc(OC)c(OC)c4)n3n2)ccc1OC` [Example 8, 5-[3-(3,4-Dimethoxy-phenyl)-imidazo[1,2-b]pyridazin-6-yl]-2-methoxy-benzoic acid ethyl ester], for which, on PI3K alfa (read-out: IC50 (μm) PI3K-alfa), the IC50 was 6 nM.

`COc1ccccc1-c1ccc2ncc(-c3ccc(C(N)=O)cc3)n2n1` [Example 9, 4-[6-(2-Methoxy-phenyl)-imidazo[1,2-b]pyridazin-3-yl]-benzamide]: the IC50 at PI3K alfa (read-out: IC50 (μm) PI3K-alfa) came to 854 nM.

Regarding `COc1cc(-c2ccc3ncc(-c4cnc(N)c(C(F)(F)F)c4)n3n2)ccc1OCCCNC(=O)OC(C)(C)C` [Example 10, (3-{4-[3-(6-Amino-5-trifluoromethyl-pyridin-3-yl)-imidazo[1,2-b]pyridazin-6-yl]-2-methoxy-phenoxy}-propyl)-carbamic acid tert-butyl ester], on PI3K alfa (read-out: IC50 (μm) PI3K-alfa), the IC50 worked out at 118 nM.

As to `NC(=O)c1ccc(-c2ccc3ncc(-c4cnc(N)c(C(F)(F)F)c4)n3n2)cc1` [Example 11, 4-[3-(6-Amino-5-trifluoromethyl-pyridin-3-yl)-imidazo[1,2-b]pyridazin-6-yl]-benzamide], the IC50 on PI3K alfa (read-out: IC50 (μm) PI3K-alfa) came out at 372 nM.

For `COc1cc(-c2ccc3ncc(-c4cnc(N)c(C(F)(F)F)c4)n3n2)ccc1OCCCN` [Example 14, 5-{6-[4-(3-Amino-propoxy)-3-methoxy-phenyl]-imidazo[1,2-b]pyridazin-3-yl}-3-trifluoromethyl-pyridin-2-ylamine], the IC50 at PI3K alfa (read-out: IC50 (μm) PI3K-alfa) turned out to be 39 nM.

Regarding `COc1ccc(-c2cnc3ccc(-c4ccc(OCCO)c(C(C)=O)c4)nn23)cc1OC` [Example 16, 1-[5-[3-(3,4-Dimethoxy-phenyl)-imidazo[1,2-b]pyridazin-6-yl]-2-(2-hydroxy-ethoxy)-phenyl]-ethanone], the IC50 at PI3K alfa (read-out: IC50 (μm) PI3K-alfa) amounted to 135 nM.

With `COc1cc(-c2ccc3ncc(-c4ccc(C(N)=O)cc4)n3n2)ccc1OCCCN` [Example 17, 4-{6-[4-(3-Amino-propoxy)-3-methoxy-phenyl]-imidazo[1,2-b]pyridazin-3-yl}-benzamide], the IC50 on PI3K alfa (read-out: IC50 (μm) PI3K-alfa) was 53 nM.

Consider `CS(=O)(=O)c1ccc(-c2cnc3ccc(-c4cnc(N)c(C(F)(F)F)c4)nn23)cc1` [Example 18, 5-[3-(4-Methanesulfonyl-phenyl)-imidazo[1,2-b]pyridazin-6-yl]-3-trifluoro-methyl-pyridin-2-ylamine], for which, on PI3K alfa (read-out: IC50 (μm) PI3K-alfa), the IC50 turned out to be 9.5 nM.

Regarding `COc1ccc(-c2ccc3ncc(-c4ccc(-c5ccoc5)cc4)n3n2)cc1OC` [Example 19, 6-(3,4-Dimethoxy-phenyl)-3-(4-furan-3-yl-phenyl)-imidazo[1,2-b]pyridazine], the IC50 on PI3K alfa (read-out: IC50 (μm) PI3K-alfa) was determined as 120 nM.

On to `COc1ccc(-c2ccc3ncc(-c4ccc(-c5ccc[nH]5)cc4)n3n2)cc1OC` [Example 20, 6-(3,4-Dimethoxy-phenyl)-3-[4-(1H-pyrrol-2-yl)-phenyl]-imidazo[1,2-b]pyridazine], for which the IC50 at PI3K alfa (read-out: IC50 (μm) PI3K-alfa) is 122 nM.

As for `COc1cc(-c2cnc3ccc(-c4ccc(C(N)=O)cc4)nn23)ccc1OCCCNC(=O)OC(C)(C)C` [Example 21, (3-{4-[6-(4-Carbamoyl-phenyl)-imidazo[1,2-b]pyridazin-3-yl]-2-methoxy-phenoxy}-propyl)-carbamic acid tert-butyl ester], the IC50 on PI3K alfa (read-out: IC50 (μm) PI3K-alfa) is 292 nM.

With `Nc1ncc(-c2ccc3ncc(-c4ccc(F)nc4)n3n2)cc1C(F)(F)F` [Example 27, 5-[3-(6-Fluoro-pyridin-3-yl)-imidazo[1,2-b]pyridazin-6-yl]-3-trifluoromethyl-pyridin-2-ylamine], the IC50 on PI3K alfa (read-out: IC50 (μm) PI3K-alfa) was 1.4 nM.

Consider `Nc1ncc(-c2ccc3ncc(-c4ccc(Nc5nc(-c6ccccc6)cs5)nc4)n3n2)cc1C(F)(F)F` [Example 28, 5-{3-[6-(4-Phenyl-thiazol-2-ylamino)-pyridin-3-yl]-imidazo[1,2-b]pyridazin-6-yl}-3-trifluoromethyl-pyridin-2-ylamine], for which the IC50 on PI3K alfa (read-out: IC50 (μm) PI3K-alfa) was found to be 12 nM.

On to `CC(C)N1CCC(Oc2ccc(-c3cnc4ccc(-c5cnc(N)c(C(F)(F)F)c5)nn34)cn2)CC1` [Example 29, 5-{3-[6-(1-Isopropyl-piperidin-4-yloxy)-pyridin-3-yl]-imidazo[1,2-b]pyridazin-6-yl}-3-trifluoromethyl-pyridin-2-ylamine], for which the IC50 on PI3K alfa (read-out: IC50 (μm) PI3K-alfa) was determined as 7 nM.

For the molecule `Nc1ncc(-c2ccc3ncc(-c4ccc(NCc5ccccc5)nc4)n3n2)cc1C(F)(F)F` [Example 30, 5-[3-(6-Benzylamino-pyridin-3-yl)-imidazo[1,2-b]pyridazin-6-yl]-3-trifluoro-methyl-pyridin-2-ylamine], at PI3K alfa (read-out: IC50 (μm) PI3K-alfa), the IC50 amounted to 2.3 nM.

In the case of `Nc1ncc(-c2ccc3ncc(-c4ccc(N5CCOCC5)nc4)n3n2)cc1C(F)(F)F` [Example 31, 5-[3-(6-Morpholin-4-yl-pyridin-3-yl)-imidazo[1,2-b]pyridazin-6-yl]-3-trifluoromethyl-pyridin-2-ylamine], the IC50 on PI3K alfa (read-out: IC50 (μm) PI3K-alfa) stood at 4.5 nM.

Consider `Nc1ncc(-c2ccc3ncc(-c4ccc(O)nc4)n3n2)cc1C(F)(F)F` [Example 32, 5-[6-(6-Amino-5-trifluoromethyl-pyridin-3-yl)-imidazo[1,2-b]pyridazin-3-yl]-pyridin-2-ol], for which the IC50 on PI3K alfa (read-out: IC50 (μm) PI3K-alfa) came to 4.9 nM.

With `CCS(=O)(=O)c1ccc(-c2cnc3ccc(-c4cnc(N)c(C(F)(F)F)c4)nn23)cc1` [Example 33, 5-[3-(4-Ethanesulfonyl-phenyl)-imidazo[1,2-b]pyridazin-6-yl]-3-trifluoro-methyl-pyridin-2-ylamine], the IC50 at PI3K alfa (setting [1]) amounted to 63 nM; at PI3K beta it was 240 nM; on PI3K delta, 103 nM; on PI3K gamma it was 1220 nM.

For the molecule `CC(C)(C)OC(=O)NCCCOc1ccc(-c2ccc3ncc(-c4cnc(N)c(C(F)(F)F)c4)n3n2)cc1OC(F)(F)F` [Example 55], the IC50 was 6120 nM at PI3K alfa (setting [1]), > 9100 nM on PI3K beta and > 9100 nM on PI3K delta.

As to `Nc1ncc(-c2cnc3ccc(-c4cnc(N)c(C(F)(F)F)c4)nn23)cn1` [Example 79, 5-[6-(6-Amino-5-trifluoro-methyl-pyridin-3-yl)-imidazo [1,2-b]pyridazin-3-yl]-pyrimidin-2-ylamine], the results for the IC50 at PI3K alfa (setting [1]), on PI3K beta and at PI3K delta were 15 nM, 4 nM and 9 nM, respectively.

The record behind these values is patent US20100311729A1, “Substituted imidazopyridazines and pyrrolopyrimidines as lipid kinase inhibitors” (priority 2007, published 2010).
